This assay has as its target T1, cAMP and cAMP-inhibited cGMP 3',5'-cyclic phosphodiesterase 10A (Rattus norvegicus, UniProt Q9QYJ6).
T1 sequence (Q9QYJ6 whole entry): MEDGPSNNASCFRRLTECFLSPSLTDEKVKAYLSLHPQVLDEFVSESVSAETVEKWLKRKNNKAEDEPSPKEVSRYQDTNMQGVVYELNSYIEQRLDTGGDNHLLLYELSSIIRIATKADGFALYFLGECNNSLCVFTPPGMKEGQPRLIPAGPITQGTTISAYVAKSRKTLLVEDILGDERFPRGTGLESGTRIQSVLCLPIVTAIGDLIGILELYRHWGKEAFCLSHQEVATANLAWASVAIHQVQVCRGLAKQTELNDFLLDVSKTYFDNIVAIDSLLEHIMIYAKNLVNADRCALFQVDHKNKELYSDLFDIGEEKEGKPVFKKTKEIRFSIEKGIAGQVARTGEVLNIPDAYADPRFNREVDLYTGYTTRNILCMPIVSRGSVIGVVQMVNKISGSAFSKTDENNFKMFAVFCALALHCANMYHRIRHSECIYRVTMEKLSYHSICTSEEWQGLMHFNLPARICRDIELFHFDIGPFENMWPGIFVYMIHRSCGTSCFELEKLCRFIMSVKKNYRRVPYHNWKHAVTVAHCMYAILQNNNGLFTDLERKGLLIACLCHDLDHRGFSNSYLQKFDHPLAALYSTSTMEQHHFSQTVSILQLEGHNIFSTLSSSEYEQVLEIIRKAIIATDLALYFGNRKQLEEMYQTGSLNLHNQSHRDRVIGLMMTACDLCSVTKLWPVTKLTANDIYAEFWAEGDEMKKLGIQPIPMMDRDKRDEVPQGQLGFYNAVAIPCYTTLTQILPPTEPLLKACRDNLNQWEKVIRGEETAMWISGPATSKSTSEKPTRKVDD
Description: PDE Competitive Enzyme Inhibition Assay. Conditions: pH 7.5; 22 °C. An excerpt:
PDE activity was monitored by measuring the hydrolysis of [3H]-cAMP to [3H]-AMP using a scintillation proximity assay (SPA). [3H]-AMP was captured by the SPA beads, and quantified on a TopCount plate reader.

The Ki is a dissociation constant, usually derived from enzyme kinetics or from competition with a known ligand. A lower Ki goes with a stronger hold on the target. The compound `COc1cc2ncnc(N3CC[C@@H](Oc4ccc(C(C)(C)C)cc4)C3)c2cc1OC` [(R)-4-[3-(4-tert-Butyl-phenoxy)-pyrrolidin-1-yl]-6,7-dimethoxy-quinazoline] came in with an inhibition constant (Ki) of 100 nM.
